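Test compounds were applied to cells in 96-well plates for 48 hours at 5 doses. At the TGI there is no net growth.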
Legend:
Test in all cases: growth of human tumour cells (NCI), 48 h
786-0 renal = test system: 786-0 renal
A498 renal = test system: A498 renal
A549 NSCLC = test system: A549 NSCLC
ACHN renal = test system: ACHN renal
BT-549 breast = test system: BT-549 breast
CAKI-1 renal = test system: CAKI-1 renal
CCRF-CEM leukemia = test system: CCRF-CEM leukemia
COLO 205 colon = test system: COLO 205 colon
DU-145 prostate = test system: DU-145 prostate
EKVX NSCLC = test system: EKVX NSCLC
HCC-2998 colon = test system: HCC-2998 colon
HCT-116 colon = test system: HCT-116 colon
HCT-15 colon = test system: HCT-15 colon
HL-60(TB) leukemia = test system: HL-60(TB) leukemia
HOP-62 NSCLC = test system: HOP-62 NSCLC
HOP-92 NSCLC = test system: HOP-92 NSCLC
HT29 colon = test system: HT29 colon
IGROV1 ovarian = test system: IGROV1 ovarian
K-562 leukemia = test system: K-562 leukemia
KM12 colon = test system: KM12 colon
LOX IMVI melanoma = test system: LOX IMVI melanoma
M14 melanoma = test system: M14 melanoma
MALME-3M melanoma = test system: MALME-3M melanoma
MCF7 breast = test system: MCF7 breast
MDA-MB-231 breast = test system: MDA-MB-231 breast
MDA-MB-435 = test system: MDA-MB-435
MDA-N = test system: MDA-N
MOLT-4 leukemia = test system: MOLT-4 leukemia
NCI-H226 lung = test system: NCI-H226 lung
NCI-H23 lung = test system: NCI-H23 lung
NCI-H460 lung = test system: NCI-H460 lung
NCI-H522 lung = test system: NCI-H522 lung
NCI/ADR-RES ovarian = test system: NCI/ADR-RES ovarian
OVCAR-3 ovarian = test system: OVCAR-3 ovarian
OVCAR-4 ovarian = test system: OVCAR-4 ovarian
OVCAR-5 ovarian = test system: OVCAR-5 ovarian
OVCAR-8 ovarian = test system: OVCAR-8 ovarian
PC-3 prostate = test system: PC-3 prostate
RPMI-8226 leukemia = test system: RPMI-8226 leukemia
RXF 393 renal = test system: RXF 393 renal
SF-295 CNS = test system: SF-295 CNS
SF-539 CNS = test system: SF-539 CNS
SK-MEL-2 melanoma = test system: SK-MEL-2 melanoma
SK-MEL-28 melanoma = test system: SK-MEL-28 melanoma
SK-MEL-5 melanoma = test system: SK-MEL-5 melanoma
SK-OV-3 ovarian = test system: SK-OV-3 ovarian
SN12C renal = test system: SN12C renal
SNB-19 CNS = test system: SNB-19 CNS
SNB-75 CNS = test system: SNB-75 CNS
SR leukemia = test system: SR leukemia
SW-620 colon = test system: SW-620 colon
U251 CNS = test system: U251 CNS
UACC-257 melanoma = test system: UACC-257 melanoma
UACC-62 melanoma = test system: UACC-62 melanoma
UO-31 renal = test system: UO-31 renal
HS 578T breast = test system: HS 578T breast
SF-268 CNS = test system: SF-268 CNS
TK-10 renal = test system: TK-10 renal

Measured: TGI

c1ccc2c(c1)c(N1CCCCC1)cc1nc3c(cc(N4CCCCC4)c4ccccc43)nc12
> 100 µM: 786-0 renal | A498 renal | A549 NSCLC | ACHN renal | BT-549 breast | CAKI-1 renal | CCRF-CEM leukemia | COLO 205 colon | DU-145 prostate | EKVX NSCLC | HCC-2998 colon | HCT-116 colon | HCT-15 colon | HL-60(TB) leukemia | HOP-62 NSCLC | HOP-92 NSCLC | HT29 colon | IGROV1 ovarian | K-562 leukemia | KM12 colon | LOX IMVI melanoma | M14 melanoma | MALME-3M melanoma | MCF7 breast | MDA-MB-231 breast | MDA-MB-435 | MDA-N | MOLT-4 leukemia | NCI-H226 lung | NCI-H23 lung | NCI-H460 lung | NCI-H522 lung | NCI/ADR-RES ovarian | OVCAR-3 ovarian | OVCAR-4 ovarian | OVCAR-5 ovarian | OVCAR-8 ovarian | PC-3 prostate | RPMI-8226 leukemia | RXF 393 renal | SF-295 CNS | SF-539 CNS | SK-MEL-2 melanoma | SK-MEL-28 melanoma | SK-MEL-5 melanoma | SK-OV-3 ovarian | SN12C renal | SNB-19 CNS | SNB-75 CNS | SR leukemia | SW-620 colon | U251 CNS | UACC-257 melanoma | UACC-62 melanoma | UO-31 renal

O=C1C(=C/C=C2/SC(c3ccccc3)(c3ccccc3)c3ccccc32)C(=O)c2ccccc21
> 100 µM: 786-0 renal | A498 renal | A549 NSCLC | ACHN renal | BT-549 breast | CAKI-1 renal | COLO 205 colon | DU-145 prostate | EKVX NSCLC | HCC-2998 colon | HCT-116 colon | HCT-15 colon | HOP-62 NSCLC | HOP-92 NSCLC | HS 578T breast | HT29 colon | IGROV1 ovarian | K-562 leukemia | KM12 colon | LOX IMVI melanoma | M14 melanoma | MALME-3M melanoma | MCF7 breast | MDA-MB-231 breast | MDA-MB-435 | MDA-N | MOLT-4 leukemia | NCI-H226 lung | NCI-H23 lung | NCI-H460 lung | NCI-H522 lung | NCI/ADR-RES ovarian | OVCAR-3 ovarian | OVCAR-4 ovarian | OVCAR-5 ovarian | OVCAR-8 ovarian | PC-3 prostate | RPMI-8226 leukemia | RXF 393 renal | SF-268 CNS | SF-295 CNS | SF-539 CNS | SK-MEL-28 melanoma | SK-MEL-5 melanoma | SK-OV-3 ovarian | SN12C renal | SNB-19 CNS | SNB-75 CNS | SW-620 colon | TK-10 renal | U251 CNS | UACC-257 melanoma | UACC-62 melanoma | UO-31 renal
